Reference: patent US20240190880A1 (THE REGENTS OF THE UNIVERSITY OF MICHIGAN, priority 2021, published 2024)

The compounds below were run against T1, ER (Homo sapiens, UniProt P03372) (assay: ER degradation activity, in-cell western blot analysis in T47D cells). Conditions: 16 hours, Table A does not say which cell line (T47D or MCF7), read-out: Potency (DC50).
T1 construct: host or cells: T47D and MCF7 human breast cancer cells
T1 sequence (P03372 1-595): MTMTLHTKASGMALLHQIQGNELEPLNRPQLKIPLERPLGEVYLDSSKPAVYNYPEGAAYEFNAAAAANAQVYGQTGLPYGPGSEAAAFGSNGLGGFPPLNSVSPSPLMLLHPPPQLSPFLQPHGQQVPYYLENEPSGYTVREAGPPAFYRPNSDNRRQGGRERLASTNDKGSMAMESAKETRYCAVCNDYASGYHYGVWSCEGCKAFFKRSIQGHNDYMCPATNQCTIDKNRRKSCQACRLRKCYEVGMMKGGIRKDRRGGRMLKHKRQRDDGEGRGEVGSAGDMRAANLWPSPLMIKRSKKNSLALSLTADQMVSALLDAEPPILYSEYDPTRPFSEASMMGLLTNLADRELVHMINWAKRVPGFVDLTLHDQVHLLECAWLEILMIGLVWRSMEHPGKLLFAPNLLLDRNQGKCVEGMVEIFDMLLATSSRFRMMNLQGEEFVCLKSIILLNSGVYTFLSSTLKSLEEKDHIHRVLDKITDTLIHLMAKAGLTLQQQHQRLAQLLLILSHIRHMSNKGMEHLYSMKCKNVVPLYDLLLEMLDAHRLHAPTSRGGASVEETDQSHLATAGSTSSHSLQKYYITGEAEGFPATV
Format: cell-based
Procedure, shortened: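 Human T47D cells (DMEM, 10% FBS) are dosed for 16 h with 0.5% DMSO final and probed with 680- and 800-dye secondary antibodies. Relative ER is calculated against vehicle and untreated wells.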

Compared with O=C1CCC(N2C(=O)c3cc4c(cc3C2=O)CN(C2CCC(C(=O)N3CC(Oc5ccc([C@H]6c7ccc(O)cc7CC[C@H]6c6ccccc6)cc5)C3)CC2)C4)C(=O)N1 (stereo partly drawn) [E 384, 2-(2,6-dioxopiperidin-3-yl)-6-((1R,4s)-4-(3-(4-((1S,2R)-6-hydroxy-2-phenyl-1,2,3,4-tetrahydronaphthalen-1-yl)phenoxy)azetidine-1-carbonyl)cyclohexyl)-6,7-dihydropyrrolo[3,4-f]isoindole-1,3(2H,5H)-dione], O=C1CCC(N2C(=O)c3cc4c(cc3C2=O)CN([C@H]2CC[C@H](C(=O)N3CC(Oc5ccc([C@H]6c7ccc(O)cc7CC[C@H]6c6ccccc6)cc5)C3)CC2)C4)C(=O)N1 (stereo partly drawn) [E 385, 2-(2,6-dioxopiperidin-3-yl)-6-((1S,4r)-4-(3-(4-((1S,2R)-6-hydroxy-2-phenyl-1,2,3,4-tetrahydronaphthalen-1-yl)phenoxy)azetidine-1-carbonyl)cyclohexyl)-6,7-dihydropyrrolo[3,4-f]isoindole-1,3(2H,5H)-dione] is lower in DC50: 10 to 100 nM for the first, less than 10 nM for the second.

Going from O=C1CCC(N2C(=O)c3cc4c(cc3C2=O)CN([C@H]2CC[C@@H](C(=O)N3CC(Nc5ccc([C@H]6c7ccc(O)cc7CC[C@H]6c6ccccc6)cc5)C3)CC2)C4)C(=O)N1 (stereo partly drawn) [E 386, 2-(2,6-dioxopiperidin-3-yl)-6-((1R,4s)-4-(3-((4-((1S,2R)-6-hydroxy-2-phenyl-1,2,3,4-tetrahydronaphthalen-1-yl)phenyl)amino)azetidine-1-carbonyl)cyclohexyl)-6,7-dihydropyrrolo[3,4-f]isoindole-1,3(2H,5H)-dione] to O=C1CCC(N2C(=O)c3cc4c(cc3C2=O)CN([C@H]2CC[C@H](C(=O)N3CC(Nc5ccc([C@H]6c7ccc(O)cc7CC[C@H]6c6ccccc6)cc5)C3)CC2)C4)C(=O)N1 (stereo partly drawn) [E 387, 2-(2,6-dioxopiperidin-3-yl)-6-((1S,4r)-4-(3-((4-((1S,2R)-6-hydroxy-2-phenyl-1,2,3,4-tetrahydronaphthalen-1-yl)phenyl)amino)azetidine-1-carbonyl)cyclohexyl)-6,7-dihydropyrrolo[3,4-f]isoindole-1,3(2H,5H)-dione], the DC50 falls from greater than 100 nM to less than 10 nM.

First: O=C1CCC(N2C(=O)c3cc4c(cc3C2=O)CN(C(=O)[C@H]2CC[C@H](N3CC(Oc5ccc([C@H]6c7ccc(O)cc7CC[C@H]6c6ccccc6)cc5)C3)CC2)C4)C(=O)N1 (stereo partly drawn) [E 388, 2-(2,6-dioxopiperidin-3-yl)-6-((1S,4r)-4-(3-(4-((1S,2R)-6-hydroxy-2-phenyl-1,2,3,4-tetrahydronaphthalen-1-yl)phenoxy)azetidin-1-yl)cyclohexane-1-carbonyl)-6,7-dihydropyrrolo[3,4-f]isoindole-1,3(2H,5H)-dione]
Second: O=C1CCC(N2C(=O)c3cc4c(cc3C2=O)CN(C(=O)[C@H]2CC[C@@H](N3CC(Oc5ccc([C@H]6c7ccc(O)cc7CC[C@H]6c6ccccc6)cc5)C3)CC2)C4)C(=O)N1 (stereo partly drawn) [E 389, 2-(2,6-dioxopiperidin-3-yl)-6-((1R,4s)-4-(3-(4-((1S,2R)-6-hydroxy-2-phenyl-1,2,3,4-tetrahydronaphthalen-1-yl)phenoxy)azetidin-1-yl)cyclohexane-1-carbonyl)-6,7-dihydropyrrolo[3,4-f]isoindole-1,3(2H,5H)-dione]
The DC50 of the first is lower: 10 to 100 nM for the first, greater than 100 nM for the second.

First: O=C1CCC(N2C(=O)c3cc4c(cc3C2=O)CN(C(=O)[C@H]2CC[C@H](N3CC(Nc5ccc([C@H]6c7ccc(O)cc7CC[C@H]6c6ccccc6)cc5)C3)CC2)C4)C(=O)N1 (stereo partly drawn) [E 390, 2-(2,6-dioxopiperidin-3-yl)-6-((1S,4r)-4-(3-((4-((1S,2R)-6-hydroxy-2-phenyl-1,2,3,4-tetrahydronaphthalen-1-yl)phenyl)amino)azetidin-1-yl)cyclohexane-1-carbonyl)-6,7-dihydropyrrolo[3,4-f]isoindole-1,3(2H,5H)-dione]
Second: CN(c1ccc([C@H]2c3ccc(O)cc3CC[C@H]2c2ccccc2)cc1)C1CN([C@H]2CC[C@H](C(=O)N3Cc4cc5c(cc4C3)C(=O)N(C3CCC(=O)NC3=O)C5=O)CC2)C1 (stereo partly drawn) [E 394, 2-(2,6-dioxopiperidin-3-yl)-6-((1S,4r)-4-(3-((4-((1S,2R)-6-hydroxy-2-phenyl-1,2,3,4-tetrahydronaphthalen-1-yl)phenyl)(methyl)amino)azetidin-1-yl)cyclohexane-1-carbonyl)-6,7-dihydropyrrolo[3,4-f]isoindole-1,3(2H,5H)-dione]
The DC50 of the first is lower: 10 to 100 nM for the first, greater than 100 nM for the second.

O=C1CCC(N2C(=O)c3cc4c(cc3C2=O)CN(C(=O)[C@H]2CC[C@H](N3CC(Nc5ccc([C@H]6c7ccc(O)cc7CC[C@H]6c6ccccc6)cc5)C3)CC2)C4)C(=O)N1 (stereo partly drawn) [E 391, 2-(2,6-dioxopiperidin-3-yl)-6-((1S,4r)-4-(3-((4-((1S,2R)-6-hydroxy-2-phenyl-1,2,3,4-tetrahydronaphthalen-1-yl)phenyl)amino)azetidin-1-yl)cyclohexane-1-carbonyl)-6,7-dihydropyrrolo[3,4-f]isoindole-1,3(2H,5H)-dione] and CN(c1ccc([C@H]2c3ccc(O)cc3CC[C@H]2c2ccccc2)cc1)C1CN([C@H]2CC[C@H](C(=O)N3Cc4cc5c(cc4C3)C(=O)N(C3CCC(=O)NC3=O)C5=O)CC2)C1 (stereo partly drawn) [E 395, 2-(2,6-dioxopiperidin-3-yl)-6-((1R,4s)-4-(3-((4-((1S,2R)-6-hydroxy-2-phenyl-1,2,3,4-tetrahydronaphthalen-1-yl)phenyl)(methyl)amino)azetidin-1-yl)cyclohexane-1-carbonyl)-6,7-dihydropyrrolo[3,4-f]isoindole-1,3(2H,5H)-dione] cannot be ordered by DC50: greater than 100 nM for the first, greater than 100 nM for the second.

First: C[C@@H]1Cc2c([nH]c3ccccc23)[C@@H](c2c(F)cc(C3CCN(C(=O)[C@H]4CC[C@@H](N5Cc6cc7c(cc6C5)C(=O)N(C5CCC(=O)NC5=O)C7=O)CC4)CC3)cc2F)N1CC(F)F (stereo partly drawn) [E 392, 6-((1S,4s)-4-(4-(4-((1R,3R)-2-(2,2-difluoroethyl)-3-methyl-2,3,4,9-tetrahydro-1H-pyrido[3,4-b]indol-1-yl)-3,5-difluorophenyl)piperidine-1-carbonyl)cyclohexyl)-2-(2,6-dioxopiperidin-3-yl)-6,7-dihydropyrrolo[3,4-f]isoindole-1,3(2H,5H)-dione]
Second: C[C@@H]1Cc2c([nH]c3ccccc23)[C@@H](c2c(F)cc(C3CCN(C(=O)[C@H]4CC[C@H](N5Cc6cc7c(cc6C5)C(=O)N(C5CCC(=O)NC5=O)C7=O)CC4)CC3)cc2F)N1CC(F)F (stereo partly drawn) [E 393, 6-((1R,4r)-4-(4-(4-((1R,3R)-2-(2,2-difluoroethyl)-3-methyl-2,3,4,9-tetrahydro-1H-pyrido[3,4-b]indol-1-yl)-3,5-difluorophenyl)piperidine-1-carbonyl)cyclohexyl)-2-(2,6-dioxopiperidin-3-yl)-6,7-dihydropyrrolo[3,4-f]isoindole-1,3(2H,5H)-dione]
The DC50 of the first is higher: 10 to 100 nM for the first, less than 10 nM for the second.

Same assay, conditions: compounds 16 hours, Table A does not say whether T47D or MCF7, read-out: Potency (DC50)

COc1cc([C@H]2CC[C@@H](C(=O)N3CCC(N4Cc5cc6c(cc5C4)C(=O)N(C4CCC(=O)NC4=O)C6=O)CC3)CC2)ncc1[C@@H]1c2[nH]c3ccccc3c2C[C@@H](C)N1CC(F)F (stereo partly drawn) [E 396, 6-(1-((1S,4s)-4-(5-((1R,3R)-2-(2,2-difluoroethyl)-3-methyl-2,3,4,9-tetrahydro-1H-pyrido[3,4-b]indol-1-yl)-4-methoxypyridin-2-yl)cyclohexane-1-carbonyl)piperidin-4-yl)-2-(2,6-dioxopiperidin-3-yl)-6,7-dihydropyrrolo[3,4-f]isoindole-1,3(2H,5H)-dione] showed a DC50 greater than 100 nM.
